Data: PubChem BioAssay AID272 (DTP/NCI, 2004)
Results filed as inconclusive are left out.

Test system: Lewis lung carcinoma i.m., BDF1 mice, T/C %
Assay: NCI In Vivo Anticancer Drug Screen. Data for tumor model Lewis Lung Carcinoma (intramuscular) in B6D2F1 (BDF1) mice
Procedure, shortened: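 Value is the ratio of a treated-group measurement (T) to the matching vehicle-control measurement (C), using either survival or tumour size in mice bearing transplanted tumours.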

Question: For COC(=O)Nc1nc2ccc(C3(c4ccc(F)cc4)OCCO3)cc2[nH]1, which T/C (endpoint: median survival time, dose: 20.0 mg/kg/injection, schedule: Q01DX011 (oral), vehicle: other, higher = longer survival) is on record?
Answer: 97 % of control

Question: What about the T/C (endpoint: median survival time, dose: 40.0 mg/kg/injection, schedule: Q01DX011 (oral), vehicle: other, higher = longer survival) of the same compound?
Answer: 97 % of control

Question: With CC(=O)OCC1OC(n2ncc(=O)[nH]c2=O)C(OC(C)=O)C1OC(C)=O (stereo unspecified) as the compound, how does the T/C (endpoint: mean tumor weight (est.), dose: 25.0 mg/kg/injection, schedule: Q01DX011 (ip), vehicle: water, higher = larger tumour) read?
Answer: 89 % of control

Question: What about the T/C (endpoint: mean tumor weight (est.), dose: 50.0 mg/kg/injection, schedule: Q01DX011 (ip), vehicle: water, higher = larger tumour) of the same compound?
Answer: 62 % of control

Question: And the T/C (endpoint: mean tumor weight (est.), dose: 200.0 mg/kg/injection, schedule: Q01DX011 (ip), vehicle: water, higher = larger tumour)?
Answer: 75 % of control

Question: And the T/C (endpoint: mean tumor weight (est.), dose: 400.0 mg/kg/injection, schedule: Q01DX011 (ip), vehicle: water, higher = larger tumour)?
Answer: 85 % of control

Question: What about the T/C (endpoint: mean tumor weight (est.), dose: 800.0 mg/kg/injection, schedule: Q01DX011 (ip), vehicle: water, higher = larger tumour) of the same compound?
Answer: 40 % of control

Question: And the T/C (endpoint: mean tumor weight (est.), dose: 1600.0 mg/kg/injection, schedule: Q01DX011 (ip), vehicle: water, higher = larger tumour)?
Answer: 56 % of control

Question: What about the T/C (endpoint: mean tumor weight, dose: 25.0 mg/kg/injection, schedule: Q01DX011 (ip), vehicle: Klucel (hydroxypropylcellulose) (HPC), higher = larger tumour) of the same compound?
Answer: 78 % of control

Question: And the T/C (endpoint: mean tumor weight, dose: 50.0 mg/kg/injection, schedule: Q01DX011 (ip), vehicle: Klucel (hydroxypropylcellulose) (HPC), higher = larger tumour)?
Answer: 71 % of control

Question: And the T/C (endpoint: mean tumor weight, dose: 100.0 mg/kg/injection, schedule: Q01DX011 (ip), vehicle: Klucel (hydroxypropylcellulose) (HPC), higher = larger tumour)?
Answer: 65 % of control

Question: What about the T/C (endpoint: mean tumor weight, dose: 200.0 mg/kg/injection, schedule: Q01DX011 (ip), vehicle: Klucel (hydroxypropylcellulose) (HPC), higher = larger tumour) of the same compound?
Answer: 68 % of control

Question: What about the T/C (endpoint: mean tumor weight, dose: 400.0 mg/kg/injection, schedule: Q01DX011 (ip), vehicle: Klucel (hydroxypropylcellulose) (HPC), higher = larger tumour) of the same compound?
Answer: 93 % of control

Question: What about the T/C (endpoint: mean tumor weight, dose: 800.0 mg/kg/injection, schedule: Q01DX011 (ip), vehicle: Klucel (hydroxypropylcellulose) (HPC), higher = larger tumour) of the same compound?
Answer: 37 % of control

Question: What about the T/C (endpoint: median survival time, dose: 25.0 mg/kg/injection, schedule: Q01DX011 (ip), vehicle: Klucel (hydroxypropylcellulose) (HPC), higher = longer survival) of the same compound?
Answer: 110 % of control

Question: What about the T/C (endpoint: median survival time, dose: 25.0 mg/kg/injection, schedule: Q01DX011 (ip), vehicle: water, higher = longer survival) of the same compound?
Answer: 92 % of control

Question: What about the T/C (endpoint: median survival time, dose: 50.0 mg/kg/injection, schedule: Q01DX011 (ip), vehicle: Klucel (hydroxypropylcellulose) (HPC), higher = longer survival) of the same compound?
Answer: 94 % of control

Question: And the T/C (endpoint: median survival time, dose: 50.0 mg/kg/injection, schedule: Q01DX011 (ip), vehicle: water, higher = longer survival)?
Answer: 103 % of control

Question: What about the T/C (endpoint: median survival time, dose: 100.0 mg/kg/injection, schedule: Q01DX011 (ip), vehicle: Klucel (hydroxypropylcellulose) (HPC), higher = longer survival) of the same compound?
Answer: 112 % of control

Question: What about the T/C (endpoint: median survival time, dose: 200.0 mg/kg/injection, schedule: Q01DX011 (ip), vehicle: water, higher = longer survival) of the same compound?
Answer: 98 % of control

Question: And the T/C (endpoint: median survival time, dose: 400.0 mg/kg/injection, schedule: Q01DX011 (ip), vehicle: Klucel (hydroxypropylcellulose) (HPC), higher = longer survival)?
Answer: 104 % of control

Question: And the T/C (endpoint: median survival time, dose: 400.0 mg/kg/injection, schedule: Q01DX011 (ip), vehicle: water, higher = longer survival)?
Answer: 121 % of control

Question: And the T/C (endpoint: median survival time, dose: 800.0 mg/kg/injection, schedule: Q01DX011 (ip), vehicle: Klucel (hydroxypropylcellulose) (HPC), higher = longer survival)?
Answer: 124 % of control

Question: What about the T/C (endpoint: median survival time, dose: 800.0 mg/kg/injection, schedule: Q01DX011 (ip), vehicle: water, higher = longer survival) of the same compound?
Answer: 88 % of control

Question: And the T/C (endpoint: median survival time, dose: 1600.0 mg/kg/injection, schedule: Q01DX011 (ip), vehicle: water, higher = longer survival)?
Answer: 111 % of control

Question: Which T/C (endpoint: mean tumor weight (est.), dose: 0.25 mg/kg/injection, schedule: Q01DX011 (ip), vehicle: saline, higher = larger tumour) does the source give for COC(=O)C[C@](O)(CCCC(C)(C)O)C(=O)O[C@@H]1C(OC)=C[C@]23CCCN2CCc2cc4c(cc2[C@H]13)OCO4 here?
Answer: 60 % of control

Question: And the T/C (endpoint: mean tumor weight (est.), dose: 0.5 mg/kg/injection, schedule: Q01DX011 (ip), vehicle: saline, higher = larger tumour)?
Answer: 57 % of control

Question: What about the T/C (endpoint: median survival time, dose: 0.25 mg/kg/injection, schedule: Q01DX011 (ip), vehicle: saline, higher = longer survival) of the same compound?
Answer: 93 % of control

Question: Which results are given for COc1cc([C@@H]2c3cc4c(cc3C[C@H]3COC(=O)[C@@H]32)OCO4)cc(OC)c1OC?
Answer: T/C (endpoint: mean tumor weight (est.), dose: 5.0 mg/kg/injection, schedule: Q01DX011 (ip), vehicle: saline, higher = larger tumour): 68 % of control; T/C (endpoint: mean tumor weight (est.), dose: 10.0 mg/kg/injection, schedule: Q01DX011 (ip), vehicle: saline, higher = larger tumour): 54 % of control; T/C (endpoint: mean tumor weight, dose: 6.25 mg/kg/injection, schedule: Q01DX011 (ip), vehicle: saline, higher = larger tumour): 100 % of control; T/C (endpoint: mean tumor weight, dose: 12.5 mg/kg/injection, schedule: Q01DX011 (ip), vehicle: saline, higher = larger tumour): 70 % of control; T/C (endpoint: median survival time, dose: 6.25 mg/kg/injection, schedule: Q01DX011 (ip), vehicle: saline, higher = longer survival): 100 % of control; T/C (endpoint: median survival time, dose: 12.5 mg/kg/injection, schedule: Q01DX011 (ip), vehicle: saline, higher = longer survival): 87 % of control

Question: For O=[N+]([O-])c1ccc(N/N=C/CC(O)CO)c([N+](=O)[O-])c1 (stereo unspecified), which T/C (endpoint: mean tumor weight (est.), dose: 100.0 mg/kg/injection, schedule: Q01DX011 (ip), vehicle: saline with Tween-80, higher = larger tumour) is on record?
Answer: 57 % of control

Question: And the T/C (endpoint: mean tumor weight (est.), dose: 200.0 mg/kg/injection, schedule: Q01DX011 (ip), vehicle: saline with Tween-80, higher = larger tumour)?
Answer: 52 % of control

Question: What about the T/C (endpoint: median survival time, dose: 100.0 mg/kg/injection, schedule: Q01DX011 (ip), vehicle: saline with Tween-80, higher = longer survival) of the same compound?
Answer: 92 % of control

Question: CS(=O)(=O)c1cc(C(F)(F)F)cc([N+](=O)[O-])c1Cl was tested. Which T/C (endpoint: mean tumor weight (est.), dose: 25.0 mg/kg/injection, schedule: Q01DX011 (ip), vehicle: saline with Tween-80, higher = larger tumour) did it give?
Answer: 108 % of control

Question: And the T/C (endpoint: mean tumor weight (est.), dose: 50.0 mg/kg/injection, schedule: Q01DX011 (ip), vehicle: saline with Tween-80, higher = larger tumour)?
Answer: 63 % of control

Question: And the T/C (endpoint: median survival time, dose: 25.0 mg/kg/injection, schedule: Q01DX011 (ip), vehicle: saline with Tween-80, higher = longer survival)?
Answer: 115 % of control

Question: What about the T/C (endpoint: median survival time, dose: 50.0 mg/kg/injection, schedule: Q01DX011 (ip), vehicle: saline with Tween-80, higher = longer survival) of the same compound?
Answer: 111 % of control
